A short description of the test: Cytotoxicity against WHCO1 cells after 48 hrs by MTT assay. Format: cell-based. To be noted: Homo sapiens, WHCO1, 48 h. (In general: Tetrazolium dyes change colour on reduction, which living cells bring about.)

Structures are written as SMILES.

The term IC50 denotes the point on the concentration scale where inhibition reaches its midpoint. The low end stands for higher potency, the high end for lower potency.

For the molecule `CC(/C=C/C(Cl)C(C)(Cl)CBr)=C\C=O` (configuration not stated), it took 64.8 µM to reach half-maximal inhibition (IC50).
For `C=C(C)C(Br)CC(Br)/C(C)=C/C=O` (configuration not stated) the value was 7.5 µM.

For the origin of these results see ChEMBL document CHEMBL1142118, “Halogenated monoterpene aldehydes from the South African marine alga Plocamium corallorhiza” (J Nat Prod, 2007).
